{
  "source": "patent US12162858B2",
  "about": "“Quinoline derivatives as inhibitors of AXL/MER RTK and CSF1R” (QURIENT CO., LTD., priority 2018, dated 2024)",
  "data": [
    {"biological_target": "CSF1R (Homo sapiens, UniProt P07333)", "sequence (P07333 20-972)": "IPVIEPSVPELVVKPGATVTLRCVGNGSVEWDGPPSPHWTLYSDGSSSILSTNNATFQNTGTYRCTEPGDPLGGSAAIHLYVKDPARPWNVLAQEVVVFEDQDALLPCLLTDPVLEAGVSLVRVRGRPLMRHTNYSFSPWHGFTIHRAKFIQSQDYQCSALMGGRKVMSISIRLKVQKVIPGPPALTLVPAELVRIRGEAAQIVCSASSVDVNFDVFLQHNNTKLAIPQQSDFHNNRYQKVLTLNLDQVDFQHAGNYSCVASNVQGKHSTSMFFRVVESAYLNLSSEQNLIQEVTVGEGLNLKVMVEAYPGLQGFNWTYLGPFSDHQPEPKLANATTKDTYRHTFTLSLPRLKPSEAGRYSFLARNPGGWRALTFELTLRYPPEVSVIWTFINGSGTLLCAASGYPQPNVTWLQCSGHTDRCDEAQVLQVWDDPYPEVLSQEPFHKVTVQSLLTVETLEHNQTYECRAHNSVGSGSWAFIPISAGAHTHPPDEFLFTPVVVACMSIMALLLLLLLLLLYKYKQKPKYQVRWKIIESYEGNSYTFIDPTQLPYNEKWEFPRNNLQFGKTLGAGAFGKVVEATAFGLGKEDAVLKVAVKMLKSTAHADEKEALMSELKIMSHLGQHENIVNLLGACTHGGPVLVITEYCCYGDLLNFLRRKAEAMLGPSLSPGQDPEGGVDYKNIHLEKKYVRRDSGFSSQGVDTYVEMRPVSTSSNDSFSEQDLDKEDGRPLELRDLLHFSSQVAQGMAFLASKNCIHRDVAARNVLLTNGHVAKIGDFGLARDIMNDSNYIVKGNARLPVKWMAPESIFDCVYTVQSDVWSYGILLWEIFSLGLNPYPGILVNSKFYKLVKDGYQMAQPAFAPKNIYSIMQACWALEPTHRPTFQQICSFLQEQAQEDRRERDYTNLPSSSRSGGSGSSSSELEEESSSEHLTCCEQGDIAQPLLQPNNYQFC", "assay": "Cellular CSF1R inhibition ELISA (p-CSF1R, M-CSF-induced) using THP-1 cells", "type": "cell-based", "parameters": "THP-1 cells act as a model for human monocytes; endogenous in cells; host or cells: THP-1", "outline": "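THP-1 cells (2×10^5/well, RPMI/10% FBS) were treated with compound, 10 doses in 3-fold steps, for 24 h at 37 °C in 0.2% DMSO final. They were then stimulated 5 min with human M-CSF (10 ng/ml final) and lysed. p-CSF1R was read by sandwich ELISA (HRP/TMB), with a sigmoidal dose-response fit.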", "units": {"IC50": "nM"}, "values": [
      {"smiles": "COc1cc2nccc(Oc3ccc(NC(=O)c4nn(C5CCC5)cc4OCC(F)(F)F)nc3)c2cc1OC", "note": "[Compound 24]", "IC50": "< 500"},
      {"smiles": "COc1cc2nccc(Oc3ccc(NC(=O)c4nn(C(C)C)c(C)c4OCC(F)(F)F)nc3)c2cc1OC", "note": "[Compound 2]", "IC50": "< 500"},
      {"smiles": "COc1cc2nccc(Oc3ccc(NC(=O)c4nn(C5CC5)cc4OCCC(F)(F)F)nc3)c2cc1OC", "note": "[Compound 170]", "IC50": "< 500"},
      {"smiles": "CCCCn1cc(OCC(F)(F)F)c(C(=O)Nc2ccc(Oc3ccnc4cc(OC)c(OC)cc34)cn2)n1", "note": "[Compound 36]", "IC50": "< 500"},
      {"smiles": "COc1cc2nccc(Oc3ccc(NC(=O)c4nn(CC(C)C)cc4OCC(F)(F)F)nc3)c2cc1OC", "note": "[Compound 21]", "IC50": "< 500"},
      {"smiles": "COc1cc2nccc(Oc3ccc(NC(=O)c4nn(C5CCOC5)cc4OCC(F)(F)F)cc3F)c2cc1OC", "note": "(stereo not shown) [Compound 55]", "IC50": "≥ 1000"},
      {"smiles": "COc1cc2nccc(Oc3ccc(NC(=O)c4nn(C5CCCC5)cc4OCC(F)(F)F)c(F)c3)c2cc1OC", "note": "[Compound 47]", "IC50": "500 to 1000"},
      {"smiles": "COc1cc2nccc(Oc3ccc(NC(=O)c4nn(CCN)cc4OCC(F)(F)F)c(F)c3)c2cc1OC", "note": "[Compound 75]", "IC50": "≥ 1000"},
      {"smiles": "COc1cc2nccc(Oc3ccc(NC(=O)c4nn(CC5CC5)cc4OCC(F)(F)F)nc3)c2cc1OC", "note": "[Compound 41]", "IC50": "< 500"},
      {"smiles": "COc1cc2nccc(Oc3ccc(NC(=O)c4nn(CCCN)cc4OCC(F)(F)F)nc3)c2cc1OC", "note": "[Compound 68]", "IC50": "< 500"},
      {"smiles": "COc1cc2nccc(Oc3ccc(NC(=O)c4nn(CC5CCNC5)cc4OCC(F)(F)F)nc3)c2cc1OC", "note": "(stereo not shown) [Compound 72]", "IC50": "< 500"},
      {"smiles": "COCCOc1cn(C2CC2)nc1C(=O)Nc1ccc(Oc2ccnc3cc(OC)c(OC)cc23)nn1", "note": "[Compound 171]", "IC50": "≥ 1000"},
      {"smiles": "CCCn1cc(OCC(F)(F)F)c(C(=O)Nc2ccc(Oc3ccnc4cc(OC)c(OC)cc34)cc2)n1", "note": "[Compound 38]", "IC50": "500 to 1000"},
      {"smiles": "COc1cc2nccc(Oc3ccc(NC(=O)c4nn(CC5CCOC5)cc4OCC(F)(F)F)nc3)c2cc1OC", "note": "(stereo not shown) [Compound 44]", "IC50": "< 500"},
      {"smiles": "COc1cc2nccc(Oc3ccc(NC(=O)c4nn(CC(C)C)cc4OCC(F)(F)F)cc3F)c2cc1OC", "note": "[Compound 53]", "IC50": "500 to 1000"},
      {"smiles": "COc1cc2nccc(Oc3ccc(NC(=O)c4nn(CCCO)cc4OCC(F)(F)F)nc3)c2cc1OC", "note": "[Compound 18]", "IC50": "< 500"},
      {"smiles": "COc1cc2nccc(Oc3ccc(NC(=O)c4nn(C5CCCC5)cc4OCC(F)(F)F)cc3F)c2cc1OC", "note": "[Compound 52]", "IC50": "≥ 1000"},
      {"smiles": "CCCn1cc(OCC(F)(F)F)c(C(=O)Nc2ccc(Oc3ccnc4cc(OC)c(OC)cc34)c(F)c2)n1", "note": "[Compound 25]", "IC50": "500 to 1000"},
      {"smiles": "COCCn1cc(OCC(F)(F)F)c(C(=O)Nc2ccc(Oc3ccnc4cc(OC)c(OC)cc34)c(F)c2)n1", "note": "[Compound 54]", "IC50": "≥ 1000"},
      {"smiles": "COc1cc2nccc(Oc3ccc(NC(=O)c4sc(C5CC5)cc4OCC(F)(F)F)nc3)c2cc1OC", "note": "[Compound 179]", "IC50": "< 500"},
      {"smiles": "COc1cc2nccc(Oc3ccc(NC(=O)c4nn(CC(C)O)cc4OCC(F)F)nc3)c2cc1OC", "note": "(stereo not shown) [Compound 175]", "IC50": "< 500"},
      {"smiles": "CCC(=O)n1cc(OCC(F)(F)F)c(C(=O)Nc2ccc(Oc3ccnc4cc(OC)c(OC)cc34)cn2)n1", "note": "[Compound 20]", "IC50": "< 500"}
    ]}
  ]
}
